From US11999727B2 (Tango Therapeutics, Inc., priority 2020, dated 2024)

Assays:
[1] = molecular target: T1, PRMT5 (Homo sapiens, UniProt O14744); experiment: PRMT5 biochemical IC50 assay with SAM as cofactor; details: PRMT5, SAM as cofactor; read-out: SAM IC50
T1 construct: purchased Viva (custom protein)

[2] = molecular target: T1, PRMT5; experiment: PRMT5 biochemical IC50 assay with no cofactor; details: PRMT5, no cofactor; read-out: No Cofactor/rel IC50
Source text: Table 1 indicates IC50 values (μM) against PRMT5 for exemplary compounds in the presence of SAM as cofactor, with no cofactor, and with MTA as cofactor, respectively (columns 4-6). […] Ki values can be calculated from the IC50 values as described in the Examples section. As detailed in the Examples section, for the assay performed in the presence of SAM, IC50=Ki×1.5 (Ki=IC50/1.5).

[3] = molecular target: T1, PRMT5; experiment: PRMT5 biochemical IC50 assay with MTA as cofactor; details: PRMT5, MTA as cofactor; read-out: MTA IC50
[4] = tested on: HAP1 MTAP-intact cell line; experiment: SDMA in-cell western assay, HAP1 MTAP-intact; format: cell-based; details: Homo sapiens, HAP1, SDMA in-cell western, HAP1 MTAP-intact; read-out: MTAP HAP1 intact IC50
Method in brief: (§1)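 Isogenic HAP1 pair: the MTAP-intact line expresses endogenous MTAP, and the deleted line is MTAP-null. Symmetric dimethylarginine was detected by in-cell western and IC50 values derived for each line.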

[5] = tested on: HAP1 MTAP-deleted cell line; experiment: SDMA in-cell western assay, HAP1 MTAP-deleted; format: cell-based; details: for IC50: Homo sapiens, HAP1, SDMA in-cell western, HAP1 MTAP-deleted, read-out: HAP1 MTAP deleted IC50; for MTAP intact/deleted ratio: IC50 ratio HAP1 MTAP-intact / HAP1 MTAP-deleted, SDMA in-cell western
Method in brief: as §1

[6] = tested on: HAP1 MTAP-deleted cell line; experiment: Viability assay, MTAP-deleted cell line; format: cell-based; details: Homo sapiens, HAP1, viability assay, HAP1 MTAP-deleted; read-out: HAP1 MTAP deleted viability
Source text: Table 1 additionally indicates IC50 values in a viability assay for the MTAP-deleted cell line (column 10), indicating the effect of treatment with compound on cell survival.

T1 sequence (O14744 whole entry): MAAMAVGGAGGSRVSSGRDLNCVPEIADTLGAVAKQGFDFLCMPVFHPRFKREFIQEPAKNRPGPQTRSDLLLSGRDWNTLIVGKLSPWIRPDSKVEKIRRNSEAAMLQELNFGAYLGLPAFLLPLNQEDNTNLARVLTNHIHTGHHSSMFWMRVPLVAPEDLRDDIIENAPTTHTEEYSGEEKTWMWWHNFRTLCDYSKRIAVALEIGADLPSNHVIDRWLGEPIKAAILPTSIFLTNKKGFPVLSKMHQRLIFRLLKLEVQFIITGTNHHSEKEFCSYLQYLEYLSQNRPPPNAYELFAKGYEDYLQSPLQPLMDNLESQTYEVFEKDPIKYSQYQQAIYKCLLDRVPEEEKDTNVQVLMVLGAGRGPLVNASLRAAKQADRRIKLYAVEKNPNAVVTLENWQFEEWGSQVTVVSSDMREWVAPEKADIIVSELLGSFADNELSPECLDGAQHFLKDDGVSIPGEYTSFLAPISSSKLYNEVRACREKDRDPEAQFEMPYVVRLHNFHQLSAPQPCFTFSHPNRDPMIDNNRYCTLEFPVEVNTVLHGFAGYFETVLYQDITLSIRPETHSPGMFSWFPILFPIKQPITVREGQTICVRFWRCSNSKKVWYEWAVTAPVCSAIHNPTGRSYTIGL
T1 sequence (Q9BQA1 whole entry partner): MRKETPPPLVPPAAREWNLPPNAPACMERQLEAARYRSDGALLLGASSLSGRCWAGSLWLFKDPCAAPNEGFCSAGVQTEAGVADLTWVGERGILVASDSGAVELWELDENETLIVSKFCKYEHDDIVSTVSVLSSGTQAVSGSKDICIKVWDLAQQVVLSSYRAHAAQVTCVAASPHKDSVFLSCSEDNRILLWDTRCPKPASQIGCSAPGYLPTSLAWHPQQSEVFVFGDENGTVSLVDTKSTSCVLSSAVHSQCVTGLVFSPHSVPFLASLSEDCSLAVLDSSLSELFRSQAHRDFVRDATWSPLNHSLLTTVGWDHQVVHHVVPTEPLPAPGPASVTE

| IC50 [1] [nM] | IC50 [2] [nM] | IC50 [3] [nM] | IC50 [4] [nM] | IC50 [5] [nM] | Structure (SMILES) | MTAP intact/deleted ratio [5] | IC50 [6] [nM] |
| --- | --- | --- | --- | --- | --- | --- | --- |
| > 500 | > 500 | > 500 | > 1000 | > 1000 | COc1ncc(NC(=O)C(=O)N2C[C@@H](C)CC[C@@H]2c2ccc(-c3cncs3)cc2)cc1C(N)=O (single isomer, unassigned) [Compound 842, 2-methoxy-5-(2-(5-methyl-2-(4-(thiazol-5-yl)phenyl)piperidin-1-yl)-2-oxoacetamido)nicotinamide] | B (an IC50 ratio greater than or equal to 3 fold but lower than 10 fold) | > 10000 |
| > 500 | > 500 | > 500 | > 1000 | > 1000 | CNC(=O)c1ccc([C@@H]2CC[C@@H](C)CN2C(=O)C(=O)Nc2cnc(OC)c(C(N)=O)c2)s1 (single isomer, unassigned) [Compound 843] | B (an IC50 ratio greater than or equal to 3 fold but lower than 10 fold) | > 10000 |
| > 500 | > 500 | > 500 | > 1000 | > 1000 | COc1ncc(NC(=O)C(=O)N2C[C@H](C)CC[C@H]2c2ccc(C(N)=O)s2)cc1C(N)=O (single isomer, unassigned) [Compound 844] | C (an IC50 ratio of less than 3 fold) | > 10000 |
| > 500 | > 500 | > 500 | > 1000 | > 1000 | CCc1cc(NC(=O)C(=O)N2C[C@@H](C)CC[C@@H]2c2ccc(C(N)=O)s2)cnc1N (single isomer, unassigned) [Compound 845] | B (an IC50 ratio greater than or equal to 3 fold but lower than 10 fold) | > 10000 |
| > 500 | > 500 | > 500 | > 1000 | > 1000 | Cc1cc(NC(=O)C(=O)N2C[C@H](C)CC[C@H]2c2cc(F)c(F)c(Cl)c2)cnc1N (single isomer, unassigned) [Compound 847] | C (an IC50 ratio of less than 3 fold) | > 10000 |
| 50 to 500 | < 50 | < 50 | 100 to 1000 | < 100 | Cc1cc(NC(=O)C(=O)N2C[C@H](C)CC[C@H]2c2ccc(N)nc2)cnc1N (single isomer, unassigned) [Compound 848] | A (an IC50 ratio greater than or equal to 10 fold) | < 1000 |
| > 500 | > 500 | > 500 | > 1000 | > 1000 | CNC(=O)c1ccc([C@@H]2CC[C@@H](C)CN2C(=O)C(=O)Nc2cnc(N)c(C)c2)s1 (single isomer, unassigned) [Compound 849] | C (an IC50 ratio of less than 3 fold) | > 10000 |
| > 500 | > 500 | > 500 | > 1000 | > 1000 | COc1ncc(NC(=O)C(=O)N2C[C@@H](C)CC[C@@H]2c2ccc(NS(C)(=O)=O)cc2)cc1C(N)=O (single isomer, unassigned) [Compound 850] | C (an IC50 ratio of less than 3 fold) | > 10000 |
| 50 to 500 | < 50 | < 50 | 100 to 1000 | < 100 | CCc1cc(NC(=O)C(=O)N2C[C@@H](C)CC[C@@H]2c2ccc(N)nc2)cnc1N (single isomer, unassigned) [Compound 851] | A (an IC50 ratio greater than or equal to 10 fold) | < 1000 |
| 50 to 500 | < 50 | < 50 | 100 to 1000 | < 100 | CNc1nc2cc([C@H]3CC[C@H](C)CN3C(=O)C(=O)Nc3cnc(N)c(C)c3)ccc2s1 (single isomer, unassigned) [Compound 852] | A (an IC50 ratio greater than or equal to 10 fold) | < 1000 |
| > 500 | > 500 | > 500 | > 1000 | > 1000 | CNc1nc2cc([C@@H]3CC[C@@H](C)CN3C(=O)C(=O)Nc3cnc(N)c(C)c3)ccc2s1 (single isomer, unassigned) [Compound 855] | C (an IC50 ratio of less than 3 fold) | > 10000 |
| > 500 | > 500 | > 500 | > 1000 | > 1000 | CCc1cc(NC(=O)C(=O)N2C[C@H](C)CC[C@H]2c2ccc(N)nc2)cnc1N (single isomer, unassigned) [Compound 856] | B (an IC50 ratio greater than or equal to 3 fold but lower than 10 fold) | > 10000 |
| 50 to 500 | 50 to 500 | < 50 | > 1000 | < 100 | Cc1cc(NC(=O)C(=O)N2C[C@@H](C)CC[C@@H]2c2cc(F)c(F)c(Cl)c2)cnc1N (single isomer, unassigned) [Compound 857] | A (an IC50 ratio greater than or equal to 10 fold) | 1000 to 10000 |
| 50 to 500 | < 50 | < 50 | > 1000 | < 100 | COc1ncc(NC(=O)C(=O)N2C[C@H](C)CC[C@H]2c2ccc(NS(C)(=O)=O)cc2)cc1C(N)=O (single isomer, unassigned) [Compound 858] | A (an IC50 ratio greater than or equal to 10 fold) | 1000 to 10000 |
| 50 to 500 | < 50 | < 50 | 100 to 1000 | < 100 | CNC(=O)c1ccc([C@H]2CC[C@H](C)CN2C(=O)C(=O)Nc2cnc(N)c(C)c2)s1 (single isomer, unassigned) [Compound 859] | A (an IC50 ratio greater than or equal to 10 fold) | < 1000 |
| > 500 | > 500 | > 500 | > 1000 | > 1000 | Cc1cc(NC(=O)C(=O)N2C[C@@H](C)CC[C@@H]2c2ccc(N)nc2)cnc1N (single isomer, unassigned) [Compound 860] | B (an IC50 ratio greater than or equal to 3 fold but lower than 10 fold) | > 10000 |
| > 500 | > 500 | > 500 | > 1000 | > 1000 | CNc1nc2cc([C@H]3CC[C@H](C)CN3C(=O)C(=O)Nc3cncc(C(N)=O)c3)ccc2s1 (single isomer, unassigned) [Compound 862] | B (an IC50 ratio greater than or equal to 3 fold but lower than 10 fold) | > 10000 |
| 50 to 500 | < 50 | < 50 | > 1000 | < 100 | CNc1nc2cc([C@H]3CC[C@H](C)CN3C(=O)C(=O)Nc3cnc(OC)c(C(N)=O)c3)ccc2s1 (single isomer, unassigned) [Compound 863] | A (an IC50 ratio greater than or equal to 10 fold) | < 1000 |
| 50 to 500 | < 50 | < 50 | 100 to 1000 | < 100 | CNc1ccc([C@@H]2CC[C@@H](C)CN2C(=O)C(=O)Nc2cnc(N)c(C)c2)cn1 (single isomer, unassigned) [Compound 864] | B (an IC50 ratio greater than or equal to 3 fold but lower than 10 fold) | < 1000 |
| 50 to 500 | < 50 | < 50 | 100 to 1000 | < 100 | CCc1cc(NC(=O)C(=O)N2C[C@H](C)CC[C@H]2c2ccc(NC)nc2)cnc1N (single isomer, unassigned) [Compound 865] | A (an IC50 ratio greater than or equal to 10 fold) | < 1000 |
| > 500 | > 500 | > 500 | > 1000 | > 1000 | CCc1cc(NC(=O)C(=O)N2C[C@H](C)CC[C@H]2c2ccc(NS(C)(=O)=O)cc2)cnc1N (single isomer, unassigned) [Compound 866] | C (an IC50 ratio of less than 3 fold) | > 10000 |
| > 500 | > 500 | > 500 | > 1000 | > 1000 | C[C@@H]1CC[C@@H](c2cc3[nH]ncc3s2)N(C(=O)C(=O)Nc2cncc(C(N)=O)c2)C1 (single isomer, unassigned) [Compound 868, 5-(2-(5-methyl-2-(1H-thieno[3,2-c]pyrazol-5-yl)piperidin-1-yl)-2-oxoacetamido)nicotinamide] | C (an IC50 ratio of less than 3 fold) | > 10000 |
